# Results from ChEMBL document CHEMBL4616696, “Construction and Evaluation of Molecular Models: Guide and Design of Novel SE Inhibitors” (ACS Med Chem Lett, 2020).
# Active and inactive are the calls of the source. No cut-off for these calls is given here.
# Legend:
# Candida albicans [1] = test: Antifungal activity against fluconazole-resistant Candida albicans 904 assessed as reduction in fungal growth by NCCLS method; assay type: functional
# Nakaseomyces glabratus = test: Antifungal activity against Candida glabrata ATCC 0001 assessed as reduction in fungal growth by NCCLS method; assay type: functional
# [2] = Stability in human plasma assessed as compound remaining incubated for 120 mins; assay type: ADME, cell-free; settings: read-out: Stability
# Candida albicans [3] = test: Antifungal activity against fluconazole-resistant Candida albicans CaR assessed as reduction in fungal growth by NCCLS method; assay type: functional
# [4] = Stability in human plasma assessed as compound remaining incubated for 60 mins; assay type: ADME, cell-free; settings: read-out: Stability
# Candida tropicalis = test: Antifungal activity against Candida tropicalis ATCC 1369 assessed as reduction in fungal growth by NCCLS method; assay type: functional
# Candida albicans [5] = test: Antifungal activity against fluconazole-resistant Candida albicans 17# assessed as reduction in fungal growth by NCCLS method; assay type: functional
# Pichia kudriavzevii = test: Antifungal activity against Candida krusei ATCC 6258 assessed as reduction in fungal growth by NCCLS method; assay type: functional
# Candida albicans [6] = test: Antifungal activity against fluconazole-resistant Candida albicans 901 assessed as reduction in fungal growth by NCCLS method; assay type: functional
# Aspergillus fumigatus = test: Antifungal activity against Aspergillus fumigatus KM8001 assessed as reduction in fungal growth by NCCLS method; assay type: functional
# Candida albicans [7] = test: Antifungal activity against Candida albicans ATCC 10231 assessed as reduction in fungal growth by NCCLS method; assay type: functional
# Candida albicans [8] = test: Antifungal activity against fluconazole-resistant Candida albicans 632 assessed as reduction in fungal growth by NCCLS method; assay type: functional
# [9] = molecular target: T1, Squalene epoxidase ERG1 (Candida albicans) (UniProt Q92206); test: Inhibition of SE in Candida albicans ATCC SC5314 assessed as inhibition of ergosterol biosynthesis by measuring eburicol content at 4 ug/ml incubated for 16 hrs by LC-MS analysis; set-up: scale not given: the % may be the effect or the level left
# T1 sequence (whole entry): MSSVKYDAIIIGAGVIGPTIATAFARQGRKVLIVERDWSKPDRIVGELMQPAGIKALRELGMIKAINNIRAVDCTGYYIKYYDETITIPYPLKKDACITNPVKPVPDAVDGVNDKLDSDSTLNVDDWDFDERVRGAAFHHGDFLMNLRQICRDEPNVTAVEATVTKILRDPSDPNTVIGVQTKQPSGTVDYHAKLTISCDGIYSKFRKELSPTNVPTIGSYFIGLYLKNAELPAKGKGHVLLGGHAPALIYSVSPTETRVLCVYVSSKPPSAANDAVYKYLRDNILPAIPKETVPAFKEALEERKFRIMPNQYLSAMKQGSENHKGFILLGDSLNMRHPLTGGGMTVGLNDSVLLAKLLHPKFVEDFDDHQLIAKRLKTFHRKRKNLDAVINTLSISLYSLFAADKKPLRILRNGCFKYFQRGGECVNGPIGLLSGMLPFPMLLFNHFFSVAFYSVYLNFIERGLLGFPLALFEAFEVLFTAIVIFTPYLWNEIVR
# [10] = molecular target: T1, Squalene epoxidase ERG1 (Candida albicans); test: Inhibition of SE in Candida albicans ATCC SC5314 assessed as inhibition of ergosterol biosynthesis by measuring increase in squalene content at 4 ug/ml incubated for 16 hrs by LC-MS analysis relative to control; set-up: scale not given: the % may be the effect or the level left
# [11] = molecular target: T1, Squalene epoxidase ERG1 (Candida albicans); test: Inhibition of SE in Candida albicans ATCC SC5314 assessed as inhibition of ergosterol biosynthesis by measuring unknown sterol content at 0.125 ug/ml incubated for 16 hrs by LC-MS analysis; set-up: scale not given: the % may be the effect or the level left
# [12] = molecular target: T1, Squalene epoxidase ERG1 (Candida albicans); test: Inhibition of SE in Candida albicans ATCC SC5314 assessed as inhibition of ergosterol biosynthesis by measuring increase in squalene content at 0.125 ug/ml incubated for 16 hrs by LC-MS analysis relative to control; set-up: scale not given: the % may be the effect or the level left
# [13] = molecular target: T1, Squalene epoxidase ERG1 (Candida albicans); test: Inhibition of SE in Candida albicans ATCC SC5314 assessed as inhibition of ergosterol biosynthesis by measuring increase in squalene content at 0.5 ug/ml incubated for 16 hrs by LC-MS analysis relative to control; set-up: scale not given: the % may be the effect or the level left
# [14] = molecular target: T1, Squalene epoxidase ERG1 (Candida albicans); test: Inhibition of SE in Candida albicans ATCC SC5314 assessed as inhibition of ergosterol biosynthesis by measuring unknown sterol content at 0.5 ug/ml incubated for 16 hrs by LC-MS analysis; set-up: scale not given: the % may be the effect or the level left
# [15] = molecular target: T1, Squalene epoxidase ERG1 (Candida albicans); test: Inhibition of SE in Candida albicans ATCC SC5314 assessed as inhibition of ergosterol biosynthesis by measuring ergosterol content at 0.5 ug/ml incubated for 16 hrs by LC-MS analysis; set-up: scale not given: the % may be the effect or the level left
# [16] = molecular target: T1, Squalene epoxidase ERG1 (Candida albicans); test: Inhibition of SE in Candida albicans ATCC SC5314 assessed as inhibition of ergosterol biosynthesis by measuring unknown sterol content at 4 ug/ml incubated for 16 hrs by LC-MS analysis; set-up: scale not given: the % may be the effect or the level left
# [17] = molecular target: T1, Squalene epoxidase ERG1 (Candida albicans); test: Inhibition of SE in Candida albicans ATCC SC5314 assessed as inhibition of ergosterol biosynthesis by measuring ergosterol content at 0.125 ug/ml incubated for 16 hrs by LC-MS analysis; set-up: scale not given: the % may be the effect or the level left
# [18] = molecular target: T1, Squalene epoxidase ERG1 (Candida albicans); test: Inhibition of SE in Candida albicans ATCC SC5314 assessed as inhibition of ergosterol biosynthesis by measuring eburicol content at 0.5 ug/ml incubated for 16 hrs by LC-MS analysis; set-up: scale not given: the % may be the effect or the level left
# [19] = molecular target: T1, Squalene epoxidase ERG1 (Candida albicans); test: Inhibition of SE in Candida albicans ATCC SC5314 assessed as inhibition of ergosterol biosynthesis by measuring ergosterol content at 4 ug/ml incubated for 16 hrs by LC-MS analysis; set-up: scale not given: the % may be the effect or the level left
# Candida albicans [20] = test: Antifungal activity against Candida albicans ATCC SC5314 assessed as reduction in fungal growth density at 5 and 50 nmol/ml; assay type: functional, organism-based
# Candida albicans [21] = test: Antifungal activity against Candida albicans ATCC SC5314 assessed as exudation of internal materials from cells at 4 ug/ml measured upto 48 hrs by TEM analysis; assay type: functional, organism-based
# Candida albicans [22] = test: Antifungal activity against Candida albicans ATCC SC5314 assessed as cell membrane disruption at 4 ug/ml measured upto 48 hrs by TEM analysis; assay type: functional, organism-based
# Candida albicans [23] = test: Antifungal activity against Candida albicans ATCC SC5314 assessed as reduction in cell division at 4 ug/ml measured upto 48 hrs by TEM analysis; assay type: functional, organism-based
# Candida albicans [24] = test: Antifungal activity against Candida albicans ATCC SC5314 assessed as cell wall disruption at 4 ug/ml measured upto 48 hrs by TEM analysis; assay type: functional, organism-based
Compound,MIC (Candida albicans [1]) [µg/mL],MIC (Nakaseomyces glabratus) [µg/mL],MIC (Candida albicans [3]) [µg/mL],MIC (Candida tropicalis) [µg/mL],MIC (Candida albicans [5]) [µg/mL],MIC (Pichia kudriavzevii) [µg/mL],MIC (Candida albicans [6]) [µg/mL],MIC (Aspergillus fumigatus) [µg/mL],MIC (Candida albicans [7]) [µg/mL],MIC (Candida albicans [8]) [µg/mL],other results
CN(CC(=O)NCc1ccccc1)C(=O)c1cccc2c1OCCO2,8,0.25,4,0.5,> 16,0.25,> 16,8,0.25,> 16,remaining at 2 h [2]: 83.5%; remaining at 1 h [4]: 87.3%
CN(CC(=O)NCc1ccccc1)C(=O)c1ccc2ccccc2c1,–,0.25,–,0.25,–,0.5,–,8,0.5,–,–
CN(C/C=C/c1ccccc1)Cc1cccc2ccccc12 [NAFTIFINE],8,0.5,4,0.5,8,1,> 16,> 16,0.5,8,Activity [9]: 1.7%; Activity [10]: 64.5%; Activity [11]: 1.6%; Activity [12]: 14.8%; Activity [13]: 31.5%; Activity [14]: 4.9%; Activity [15]: 62.9%; Activity [16]: 5.4%; Activity [17]: 83.6%; Activity [18]: 0.7%; Activity [19]: 28.4%
OC(Cn1cncn1)(Cn1cncn1)c1ccc(F)cc1F [FLUCONAZOLE],> 16,–,> 16,–,> 16,–,> 16,–,–,> 16,–
CN(CC(=O)NCc1ccccc1)C(=O)c1ccc2c(c1)OCCO2,–,2,–,0.5,–,0.5,–,> 16,0.5,–,–
CN(CC(=O)Nc1ccccc1)C(=O)c1ccc2ccccc2c1,–,2,–,0.5,–,1,–,> 16,0.5,–,–
CN(CC(=O)Nc1ccccc1)C(=O)c1cccc2ccccc12,> 16,0.5,8,0.5,> 16,0.25,4,8,0.25,> 16,–
CN(CC(=O)NCc1ccccc1)C(=O)c1cccc2ccccc12,> 16,0.25,4,0.5,4,0.125,4,4,0.125,8,Activity [9]: 2.3%; remaining at 2 h [2]: 91.6%; Activity [10]: 58.9%; Activity (Candida albicans [20]): Active; remaining at 1 h [4]: 94.5%; Activity [11]: 2.8%; Activity [12]: 9.8%; Activity (Candida albicans [21]): Active; Activity [13]: 29.5%; Activity [14]: 5%; Activity [15]: 63.9%; Activity [16]: 7.1%; Activity (Candida albicans [22]): Active; Activity [17]: 87.4%; Activity (Candida albicans [23]): Active; Activity [18]: 1.6%; Activity [19]: 31.7%; Activity (Candida albicans [24]): Active
CN(CC(=O)Nc1ccccc1)C(=O)c1ccc2c(c1)OCCO2,–,0.5,–,0.5,–,2,–,8,1,–,–
CN(CC(=O)Nc1ccccc1)C(=O)c1cccc2c1OCCO2,–,1,–,1,–,0.5,–,> 16,0.5,–,–
